Results on 16 compounds are retold here after article PMC9667777, “A fragment-based approach leading to the discovery of inhibitors of CK2α with a novel mechanism of action” (RSC Medicinal Chemistry, 2022).

In assay [1] the test system is HCT116 cells. As to conditions: read-out: GI50 HCT116; 72 hours; mean ± SEM from three experiments run in triplicate.
The test system of assay [2] is HCT116 cells. Put plainly: cells. Conditions: Homo sapiens, HCT-116, 72 h, read-out: GI50 HCT116, 72 hours; mean ± SEM from three experiments run in triplicate.
Assay [3] addresses T1, CK2α (Homo sapiens, UniProt P68400). Put plainly: biochemical. Conditions: for inhibition at 500 µM: read-out: % inhibition at 500 μM; for inhibition at 1000 µM: read-out: % inhibition at 1 mM; for inhibition at 50 µM: read-out: % inhibition at 50 μM.
The target in assay [4] is T1, CK2α.
In assay [5] the test system is CK2α-dependent phosphorylation of AKT1 Ser129 and CDC37 Ser13. Conditions: HCT116 cells.
Assay [6] deals with T1, CK2α. The source holds these as a separate data set.
Another assay relates to A549 cells. Description: cells. Conditions: Homo sapiens, 72 h, read-out: GI50 A459.
The subject of another assay is Jurkat cells. Description: cells. As to conditions: Homo sapiens, 72 h, read-out: GI50 Jurkat.

Where “and” joins values, the source holds several entries; their conditions need not be identical. Equal values may be shown once. Read-outs that look alike come from different tables or passages of the source.

T1 sequence (P68400 whole entry): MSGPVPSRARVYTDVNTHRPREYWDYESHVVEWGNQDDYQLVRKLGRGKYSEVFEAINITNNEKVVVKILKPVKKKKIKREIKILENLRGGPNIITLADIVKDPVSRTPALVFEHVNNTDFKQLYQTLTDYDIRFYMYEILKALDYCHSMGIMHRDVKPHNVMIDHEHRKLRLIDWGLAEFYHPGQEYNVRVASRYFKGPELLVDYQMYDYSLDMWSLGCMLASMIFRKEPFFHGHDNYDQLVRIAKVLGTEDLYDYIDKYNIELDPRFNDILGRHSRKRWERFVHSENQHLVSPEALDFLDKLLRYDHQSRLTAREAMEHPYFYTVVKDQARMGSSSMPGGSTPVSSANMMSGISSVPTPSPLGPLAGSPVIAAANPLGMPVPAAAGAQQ

`O=C(O)c1ccc2c(c1)nc(Nc1cccc(Cl)c1)c1ccncc12` [CX4945, reference compound]: the GI50 (usually the concentration that inhibits growth by half) came to 4 µM in the assay on HCT116 cells [1] and 4.8 µM in the assay on HCT116 cells [2].

Regarding `Brc1ccc2[nH]ccc2c1` [Compound 3], on CK2α [3], the inhibition (commonly the change of the read-out against control, counted positive when it falls) at 500 µM stood at 22 ± 5% and the inhibition at 1000 µM was 50 ± 13%.

Regarding `Clc1cc2[nH]ccc2cc1Br` [Compound 6], the inhibition at 500 µM at CK2α [3] is 93 ± 5%. Moreover, the Ligand efficiency at CK2α [4] is 0.44 and 0.44 kJ mol^−1.

For `Brc1ccc2[nH]ncc2c1` [Compound 7], on CK2α [3], the inhibition at 500 µM came out at 66 ± 5% and the inhibition at 1000 µM stood at 84 ± 6%. For the same compound, the Ligand efficiency on CK2α [4] was 0.47 and 0.47 kJ mol^−1.

As for `N#CCc1c[nH]c2ccc(Br)cc12` [Compound 8], the “inhibition of CK2α-dependent phosphorylation of Ser129 in AKT1” value in assay [5] (twice the GI50 (170 μM), 24, 48 or 72 hours) is “good inhibition”. In addition, in assay [5] (twice the GI50 (170 μM), 48 h), the “inhibition of phosphorylation of Ser13 in CDC37” value is given as “significantly inhibited”. The inhibition at 50 µM at CK2α [3] stood at 32 ± 7%. Moreover, the inhibition at 500 µM at CK2α [3] came to 87 ± 11%. The inhibition at 1000 µM on CK2α [3] was 105 ± 9%. In addition, the GI50 in the assay on HCT116 cells [2] was 88 ± 7 µM; in the assay with A549 cells, 29 ± 7 µM; in the assay on Jurkat cells it was 55 ± 2 µM. On CK2α [4], the Ligand efficiency is 0.44 and 0.44 kcal mol-1 and 0.44 kJ mol^−1. For the same compound, on CK2α [6] (500 μM compound + 7 μM CK2α), the “binding to CK2α by CPMG signal” value was “binds to CK2α”. At CK2α [6] (500 μM compound + 50 μM CX4945 + 7 μM CK2α), the “binding to CK2α in the presence of CX4945” value is “significantly reduced”. For the same compound, at CK2α [6] (500 μM compound + 500 μM αD-binder + 7 μM CK2α), the “binding to CK2α in the presence of αD-binder” value is “largely inhibited”.

For `N#CCc1c[nH]c2cc(Cl)c(Br)cc12` [Compound 9], on CK2α [3], the inhibition at 50 µM was 103 ± 6%.

For the compound `N#CCc1n[nH]c2ccc(Br)cc12` [Compound 10], at CK2α [3], the inhibition at 50 µM came to 97 ± 3%.

Regarding `N#CCc1c[nH]c2ccc(C(F)(F)F)cc12` [Compound 14], the inhibition at 50 µM on CK2α [3] worked out at 39 ± 10%.

As to `N#CCc1c[nH]c2cc(Br)c(Br)cc12` [Compound 15], the inhibition at 50 µM on CK2α [3] came out at 65 ± 10%.

On to `N#CCc1n[nH]c2cc(Br)c(Br)cc12` [Compound 16], for which, on CK2α [3], the inhibition at 50 µM was found to be 95 ± 4%. Besides, the Ligand efficiency at CK2α [4] was found to be 0.53 kcal/mol.

As to `N#CCc1n[nH]c2cc(Cl)c(Br)cc12` [Compound 17], the inhibition at 50 µM on CK2α [3] amounted to 98 ± 3%. For the same compound, the Ligand efficiency on CK2α [4] turned out to be 0.52 kcal/mol.

For `Brc1ccc2[nH]cc(Cc3nccs3)c2c1` [Compound 18], the inhibition at 50 µM at CK2α [3] was determined as 13 ± 4%.

For the compound `Brc1ccc2[nH]cc(Cc3ccc[nH]3)c2c1` [Compound 20], the inhibition at 50 µM on CK2α [3] is 8 ± 3%.

Consider `CCCc1cn(Cc2c[nH]c3ccc(Br)cc23)nn1` [Compound 21], for which, on CK2α [3], the inhibition at 50 µM turned out to be 11 ± 6%.

On to `CNCc1c[nH]c2ccc(Br)cc12` [Compound 22], for which the inhibition at 50 µM at CK2α [3] was 21 ± 5%.

With `N=C(Cc1c[nH]c2ccc(Br)cc12)NO` [Compound 23], the inhibition at 50 µM on CK2α [3] is 13 ± 5%.
